Read-outs that look alike come from different tables or passages of the source.
Target: human full length sortilin (Homo sapiens (Human), UniProt Q99523)
Experiment: Human sortilin neurotensin scintillation proximity (SPA) binding assay
Conditions: for IC50: 150 nM His-tagged human full length sortilin, SPA
Protocol: NTS, which is a 13 amino acid neuropeptide, is a sortilin ligand. The IC50 is a measure of the amount of the compound required to inhibit the binding of NTS to sortilin by 50%. The skilled person will recognise that the lower the IC50 value, the less of the compound needed to achieve the desired effect, and as a result, the chances of undesirable off-target effects are reduced.
The compound affinity was determined by measuring the inhibition of ^3H-neurotensin and/or ^125I-neurotensin binding to human full length sortilin using a Scintillation Proximity Assay (SPA) format.
The human sortilin SPA binding assay was performed in a total volume of 40 μl in 50 mM HEPES pH 7.4 assay buffer containing 100 mM NaCl, 2.0 mM CaCl2, 0.1% (v:v) BSA and 0.1% (v:v)Tween-20. Varying concentration of test compounds where pre-incubated for 30 min at RT with 150 nM of c-terminal hexahistidine- human full length Sortilin (RD Systems). […] 0.1 mg PVT copper HIS-tag imaging beads (Perkin Elmer) was added and the plate was agitated at 400 rpm in the dark for 1 hr. The SPA beads were allowed a minimum 2 hours settling time before the plate was read on a Hidex Sense 425-301 scintillation reader with a 45 sec exposure time. Concentration-response evaluation of test compounds was performed with 8 different concentrations of compound (covering 3 decades). […] The compound potency results were converted to inhibition constant Ki values (nM) derived from calculated IC50 values converted to Ki values using the Cheng-Prusoff equation (Ki=IC50/(I+(L/Kd))).

[1] = 5 nM [3H]-Neurotensin radioligand, read-out: hSortilin NTS Binding IC50 (nM) [3H] neurotensin

human full length sortilin, sequence (Q99523 78-755): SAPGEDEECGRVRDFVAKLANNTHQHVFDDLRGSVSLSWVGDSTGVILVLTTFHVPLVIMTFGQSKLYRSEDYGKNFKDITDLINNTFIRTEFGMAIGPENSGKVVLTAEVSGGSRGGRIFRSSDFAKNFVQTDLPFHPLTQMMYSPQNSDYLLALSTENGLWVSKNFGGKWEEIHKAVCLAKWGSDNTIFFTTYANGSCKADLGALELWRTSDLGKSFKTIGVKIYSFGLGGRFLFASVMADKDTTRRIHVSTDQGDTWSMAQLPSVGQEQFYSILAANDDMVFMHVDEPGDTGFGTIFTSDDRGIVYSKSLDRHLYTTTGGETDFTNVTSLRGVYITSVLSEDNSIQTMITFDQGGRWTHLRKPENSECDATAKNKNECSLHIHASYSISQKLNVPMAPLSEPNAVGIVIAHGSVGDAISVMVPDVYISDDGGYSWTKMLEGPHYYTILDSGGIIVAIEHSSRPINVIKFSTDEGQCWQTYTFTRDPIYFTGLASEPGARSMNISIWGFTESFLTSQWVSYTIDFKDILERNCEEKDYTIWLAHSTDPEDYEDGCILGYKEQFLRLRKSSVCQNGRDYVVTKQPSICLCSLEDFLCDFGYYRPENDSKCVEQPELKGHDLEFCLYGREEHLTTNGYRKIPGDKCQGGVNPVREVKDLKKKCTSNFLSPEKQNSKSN

Row | IC50 [1] [nM] | IC50 (0.35 nM [125I]-Neurotensin radioligand, read-out: hSortilin NTS binding IC50 (nM) [125I] neurotensin) [nM] | Ki (derived from IC50 using the Cheng-Prusoff equation, Kd of neurotensin […], read-out: hSortilin Ki) [nM] | SMILES
1 | 725 |  |  | COCc1cccc(NC(=O)c2ccc(C(F)(F)F)cc2C(=O)O)n1 [Example 24, 2-{[6-(methoxymethyl)pyridin-2-yl]carbamoyl}-5-(trifluoromethyl)benzoic acid]
2 | 60 | 105 |  | O=C(O)c1cc(C(F)(F)F)ccc1C(=O)Nc1ccc2c(n1)COCC2 [Example 2, 2-({5H,6H,8H-pyrano[3,4-b]pyridin-2-yl}carbamoyl)-5-(trifluoromethyl)benzoic acid]
3 | 340 |  | 340 | O=C(O)c1cc(C(F)(F)F)ccc1C(=O)Nc1cccc(CO)n1 [Example 3, 2-{[6-(hydroxymethyl)pyridin-2-yl]carbamoyl}-5-(trifluoromethyl)benzoic acid]

— patent US20240132514A1, “PYRIDINE DERIVATIVES AS MODULATORS OF SORTILIN ACTIVITY” (Insusense ApS, priority 2021, published 2024)
